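Tested at 5 concentrations; 48 h exposure; 96-well plates; endpoints linearly interpolated, else capped at highest concentration. GI50: concentration for 50% inhibition of growth.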 Active and inactive are the calls of the source. Rule as the data show it: active = GI50 up to about 1.1 µM and inactive = higher.
What was measured:
Assay in all cases: DTP human tumour cell line panel, 48 h
[1] = test system: 786-0
[2] = test system: A498
[3] = test system: A549
[4] = test system: ACHN
[5] = test system: BT-549
[6] = test system: CAKI-1
[7] = test system: CCRF-CEM
[8] = test system: COLO 205
[9] = test system: DLD-1
[10] = test system: DMS-114
[11] = test system: DMS-273
[12] = test system: DU-145
[13] = test system: EKVX
[14] = test system: HCC 2998
[15] = test system: HCT-116
[16] = test system: HCT-15
[17] = test system: HL-60
[18] = test system: HOP-18
[19] = test system: HOP-62
[20] = test system: HOP-92
[21] = test system: HT-29
[22] = test system: Hs-578T
[23] = test system: IGROV-1
[24] = test system: K562
[25] = test system: KM12
[26] = test system: LOX IMVI
[27] = test system: LXFL 529
[28] = test system: M14
[29] = test system: M19-MEL
[30] = test system: MCF7
[31] = test system: MDA-MB-231
[32] = test system: MDA-MB-435
[33] = test system: MDA-N
[34] = test system: MOLT-4
[35] = test system: Malme-3M
[36] = test system: NCI-H226
[37] = test system: NCI-H23
[38] = test system: NCI-H460
[39] = test system: NCI-H522
[40] = test system: NCI/ADR-RES
[41] = test system: OVCAR-3
[42] = test system: OVCAR-4
[43] = test system: OVCAR-5
[44] = test system: OVCAR-8
[45] = test system: PC-3
[46] = test system: RPMI-8226
[47] = test system: RXF 393
[48] = test system: SF-268
[49] = test system: SF-295
[50] = test system: SF-539
[51] = test system: SK-MEL-28
[52] = test system: SK-MEL-2
[53] = test system: SK-MEL-5
[54] = test system: SK-OV-3
[55] = test system: SN12C
[56] = test system: SNB-19
[57] = test system: SNB-75
[58] = test system: SNB-78
[59] = test system: SR
[60] = test system: SW-620
[61] = test system: T47D
[62] = test system: TK-10
[63] = test system: U-251
[64] = test system: UACC-257
[65] = test system: UACC-62
[66] = test system: UO-31
[67] = test system: XF498
[68] = test system: KM-20L2

O=C1C(Cl)=C(c2ccc([N+](=O)[O-])cc2)C(=O)c2c(O)cccc21
GI50 [1]: 3.15 µM (inactive)
GI50 [2]: 3.08 µM (inactive)
GI50 [3]: 3.28 µM (inactive)
GI50 [4]: 1.11 µM (active)
GI50 [5]: 1.03 µM (active)
GI50 [6]: 1.29 µM (inactive)
GI50 [7]: 1.55 µM (inactive)
GI50 [8]: 1.82 µM (inactive)
GI50 [9]: 1.16 µM (inactive)
GI50 [10]: 0.202 µM (active)
GI50 [11]: 4.06 µM (inactive)
GI50 [12]: 6.04 µM (inactive)
GI50 [13]: 3.35 µM (inactive)
GI50 [14]: 2.26 µM (inactive)
GI50 [15]: 1.06 µM (active)
GI50 [16]: 0.614 µM
GI50 [17]: 3.48 µM (inactive)
GI50 [18]: 0.573 µM (active)
GI50 [19]: 4.17 µM (inactive)
GI50 [20]: 1.44 µM (inactive)
GI50 [21]: 2.72 µM (inactive)
GI50 [22]: 1.19 µM (inactive)
GI50 [23]: 2.39 µM (inactive)
GI50 [24]: 1.11 µM (active)
GI50 [25]: 1.11 µM (active)
GI50 [26]: 1.39 µM (inactive)
GI50 [27]: 0.273 µM (active)
GI50 [28]: 0.979 µM (active)
GI50 [29]: 1.57 µM (inactive)
GI50 [30]: 4.88 µM (inactive)
GI50 [31]: 1.03 µM (active)
GI50 [32]: 2.05 µM (inactive)
GI50 [33]: 2.49 µM (inactive)
GI50 [34]: 2.56 µM (inactive)
GI50 [35]: 2.09 µM (inactive)
GI50 [36]: 1.73 µM (inactive)
GI50 [37]: 1.67 µM (inactive)
GI50 [38]: 2.3 µM (inactive)
GI50 [39]: 0.292 µM (active)
GI50 [40]: 2.39 µM (inactive)
GI50 [41]: 1.3 µM (inactive)
GI50 [42]: 1.93 µM (inactive)
GI50 [43]: 2.24 µM (inactive)
GI50 [44]: 1.39 µM (inactive)
GI50 [45]: 2.12 µM (inactive)
GI50 [46]: 0.379 µM (active)
GI50 [47]: 0.678 µM (active)
GI50 [48]: 0.843 µM (active)
GI50 [49]: 2.7 µM (inactive)
GI50 [50]: 0.341 µM (active)
GI50 [51]: 1.26 µM (inactive)
GI50 [52]: 0.713 µM (active)
GI50 [53]: 1.87 µM (inactive)
GI50 [54]: 2.87 µM (inactive)
GI50 [55]: 2.96 µM (inactive)
GI50 [56]: 1.45 µM (inactive)
GI50 [57]: 1.83 µM (inactive)
GI50 [58]: 1.83 µM (inactive)
GI50 [59]: 0.134 µM (active)
GI50 [60]: 1.96 µM (inactive)
GI50 [61]: 2.37 µM (inactive)
GI50 [62]: 3.14 µM (inactive)
GI50 [63]: 0.8 µM (active)
GI50 [64]: 1.9 µM (inactive)
GI50 [65]: 0.508 µM (active)
GI50 [66]: 1.92 µM (inactive)
GI50 [67]: 0.395 µM (active)

COC(=O)Nc1nc2cc(Br)ccc2[nH]1
GI50 [1]: 53.2 µM (inactive)
GI50 [2]: 67.8 µM (inactive)
GI50 [3]: 50.8 µM (inactive)
GI50 [4]: 95.5 µM (inactive)
GI50 [7]: 32.2 µM (inactive)
GI50 [8]: 23.8 µM (inactive)
GI50 [9]: 42.3 µM (inactive)
GI50 [10]: 23.1 µM (inactive)
GI50 [11]: 16 µM (inactive)
GI50 [13]: > 100 µM (inactive)
GI50 [14]: 33.6 µM (inactive)
GI50 [15]: 57 µM (inactive)
GI50 [16]: 8.34 µM
GI50 [17]: 13.3 µM (inactive)
GI50 [18]: 64.1 µM (inactive)
GI50 [19]: 57.3 µM (inactive)
GI50 [20]: > 100 µM (inactive)
GI50 [21]: 16 µM (inactive)
GI50 [23]: 35.9 µM (inactive)
GI50 [24]: 17.6 µM (inactive)
GI50 [68]: 21.2 µM (inactive)
GI50 [25]: 9.29 µM (inactive)
GI50 [26]: > 100 µM (inactive)
GI50 [27]: 47.2 µM (inactive)
GI50 [28]: 43.9 µM (inactive)
GI50 [29]: 28.8 µM (inactive)
GI50 [34]: 53.8 µM (inactive)
GI50 [35]: 37.1 µM (inactive)
GI50 [36]: > 100 µM (inactive)
GI50 [37]: 32.7 µM (inactive)
GI50 [38]: 24.9 µM (inactive)
GI50 [39]: 14.4 µM (inactive)
GI50 [41]: 28.5 µM (inactive)
GI50 [42]: > 100 µM (inactive)
GI50 [43]: 60.1 µM (inactive)
GI50 [44]: 32.6 µM (inactive)
GI50 [46]: 51.9 µM (inactive)
GI50 [47]: 25.8 µM (inactive)
GI50 [48]: > 100 µM (inactive)
GI50 [49]: 30.7 µM (inactive)
GI50 [50]: 22.6 µM (inactive)
GI50 [51]: > 100 µM (inactive)
GI50 [52]: 16.1 µM (inactive)
GI50 [53]: 8.75 µM (inactive)
GI50 [54]: 27.5 µM (inactive)
GI50 [55]: > 100 µM (inactive)
GI50 [56]: > 10 µM (inactive)
GI50 [57]: 56 µM (inactive)
GI50 [58]: 42.4 µM (inactive)
GI50 [59]: 6.44 µM (inactive)
GI50 [60]: 37 µM (inactive)
GI50 [62]: 58.7 µM (inactive)
GI50 [63]: 22.8 µM (inactive)
GI50 [64]: > 100 µM (inactive)
GI50 [65]: 74.5 µM (inactive)
GI50 [66]: > 100 µM (inactive)
GI50 [67]: 23.6 µM (inactive)

From ChEMBL document CHEMBL1201862, “PubChem BioAssay data set” (2004)
